Activity calls are given as the source filed them. The rule behind the calls is not given here.
Assays:
[1] = target: Serine/threonine-protein kinase 4 (Homo sapiens) (UniProt Q13043); test: Inhibition of MST1 Lys2 labeling site harbouring IHRDIKAGNILLNTEGHAK in human Huh-7 cell lysate at 1 uM by KiNativ Profiling analysis relative to control
[2] = target: T1, Scaffold protein ILK (Homo sapiens) (UniProt Q13418); test: Inhibition of ILK Protein Kinase Domain labeling site in human Huh-7 cells at 1 uM by KiNativ Profiling analysis relative to control; format: cell-based
T1 sequence (whole entry): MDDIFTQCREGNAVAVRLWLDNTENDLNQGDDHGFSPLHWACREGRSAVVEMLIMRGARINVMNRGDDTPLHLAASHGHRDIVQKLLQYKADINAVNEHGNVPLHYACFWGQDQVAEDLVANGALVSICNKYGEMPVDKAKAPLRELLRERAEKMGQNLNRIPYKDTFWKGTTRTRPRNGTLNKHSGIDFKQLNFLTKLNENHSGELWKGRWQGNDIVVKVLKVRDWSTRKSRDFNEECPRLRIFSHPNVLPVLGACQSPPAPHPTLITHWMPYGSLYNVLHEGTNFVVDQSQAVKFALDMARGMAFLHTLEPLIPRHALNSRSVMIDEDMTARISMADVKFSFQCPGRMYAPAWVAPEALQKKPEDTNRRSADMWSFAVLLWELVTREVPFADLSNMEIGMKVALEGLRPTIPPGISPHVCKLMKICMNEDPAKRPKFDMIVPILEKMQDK

[3] = target: T2, Serine/threonine-protein kinase greatwall (Homo sapiens) (UniProt Q96GX5); test: Inhibition of MASTL K2 labeling site in human Huh-7 cells at 1 uM by KiNativ Profiling analysis relative to control; format: cell-based
T2 sequence (whole entry): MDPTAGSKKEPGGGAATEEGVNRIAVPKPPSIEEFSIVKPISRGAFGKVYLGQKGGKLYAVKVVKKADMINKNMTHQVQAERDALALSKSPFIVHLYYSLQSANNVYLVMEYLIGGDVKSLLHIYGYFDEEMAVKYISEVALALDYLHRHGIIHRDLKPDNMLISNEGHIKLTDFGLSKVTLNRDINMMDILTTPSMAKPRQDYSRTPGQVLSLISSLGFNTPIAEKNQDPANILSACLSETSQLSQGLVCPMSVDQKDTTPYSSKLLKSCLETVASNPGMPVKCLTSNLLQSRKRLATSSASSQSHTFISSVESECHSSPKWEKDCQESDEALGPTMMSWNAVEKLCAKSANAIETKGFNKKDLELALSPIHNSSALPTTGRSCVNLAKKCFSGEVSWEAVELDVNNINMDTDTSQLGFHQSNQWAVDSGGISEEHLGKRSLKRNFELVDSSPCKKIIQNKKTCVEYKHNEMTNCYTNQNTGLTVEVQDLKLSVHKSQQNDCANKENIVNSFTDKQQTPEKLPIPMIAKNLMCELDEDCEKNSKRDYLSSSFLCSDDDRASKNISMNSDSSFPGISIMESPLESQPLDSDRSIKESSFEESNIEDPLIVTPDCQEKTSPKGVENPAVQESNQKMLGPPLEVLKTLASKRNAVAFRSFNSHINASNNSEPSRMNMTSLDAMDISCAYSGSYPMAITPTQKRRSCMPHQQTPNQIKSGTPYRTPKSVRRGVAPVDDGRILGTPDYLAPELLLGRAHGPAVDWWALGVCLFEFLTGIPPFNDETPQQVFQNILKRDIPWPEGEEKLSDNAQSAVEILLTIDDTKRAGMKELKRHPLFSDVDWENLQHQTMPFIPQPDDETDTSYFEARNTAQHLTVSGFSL

[4] = target: Serine/threonine-protein kinase 26 (Homo sapiens) (UniProt Q9P289); test: Inhibition of MST4 (unknown origin) at 10 uM by Ambit Kinomescan binding assay
Sequence of Serine/threonine-protein kinase 26 (Homo sapiens) (Q9P289 2-416 limits assumed): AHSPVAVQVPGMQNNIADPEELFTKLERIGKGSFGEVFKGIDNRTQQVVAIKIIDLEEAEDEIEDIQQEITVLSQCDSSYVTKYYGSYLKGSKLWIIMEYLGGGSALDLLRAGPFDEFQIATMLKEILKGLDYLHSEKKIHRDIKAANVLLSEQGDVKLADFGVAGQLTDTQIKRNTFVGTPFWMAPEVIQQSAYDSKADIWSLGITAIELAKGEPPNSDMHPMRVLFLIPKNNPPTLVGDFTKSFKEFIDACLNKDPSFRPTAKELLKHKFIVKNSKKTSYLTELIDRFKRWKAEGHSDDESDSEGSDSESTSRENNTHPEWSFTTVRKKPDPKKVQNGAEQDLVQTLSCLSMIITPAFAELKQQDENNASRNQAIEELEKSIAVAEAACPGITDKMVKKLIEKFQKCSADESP

[5] = target: Activated CDC42 kinase 1 (Homo sapiens) (UniProt Q07912); test: Inhibition of ACK Lys1 labeling site in human A-375 cells at 5 uM by KiNativ Profiling analysis relative to control; format: cell-based
Sequence of Activated CDC42 kinase 1 (Homo sapiens) (Q07912 whole entry, looked up): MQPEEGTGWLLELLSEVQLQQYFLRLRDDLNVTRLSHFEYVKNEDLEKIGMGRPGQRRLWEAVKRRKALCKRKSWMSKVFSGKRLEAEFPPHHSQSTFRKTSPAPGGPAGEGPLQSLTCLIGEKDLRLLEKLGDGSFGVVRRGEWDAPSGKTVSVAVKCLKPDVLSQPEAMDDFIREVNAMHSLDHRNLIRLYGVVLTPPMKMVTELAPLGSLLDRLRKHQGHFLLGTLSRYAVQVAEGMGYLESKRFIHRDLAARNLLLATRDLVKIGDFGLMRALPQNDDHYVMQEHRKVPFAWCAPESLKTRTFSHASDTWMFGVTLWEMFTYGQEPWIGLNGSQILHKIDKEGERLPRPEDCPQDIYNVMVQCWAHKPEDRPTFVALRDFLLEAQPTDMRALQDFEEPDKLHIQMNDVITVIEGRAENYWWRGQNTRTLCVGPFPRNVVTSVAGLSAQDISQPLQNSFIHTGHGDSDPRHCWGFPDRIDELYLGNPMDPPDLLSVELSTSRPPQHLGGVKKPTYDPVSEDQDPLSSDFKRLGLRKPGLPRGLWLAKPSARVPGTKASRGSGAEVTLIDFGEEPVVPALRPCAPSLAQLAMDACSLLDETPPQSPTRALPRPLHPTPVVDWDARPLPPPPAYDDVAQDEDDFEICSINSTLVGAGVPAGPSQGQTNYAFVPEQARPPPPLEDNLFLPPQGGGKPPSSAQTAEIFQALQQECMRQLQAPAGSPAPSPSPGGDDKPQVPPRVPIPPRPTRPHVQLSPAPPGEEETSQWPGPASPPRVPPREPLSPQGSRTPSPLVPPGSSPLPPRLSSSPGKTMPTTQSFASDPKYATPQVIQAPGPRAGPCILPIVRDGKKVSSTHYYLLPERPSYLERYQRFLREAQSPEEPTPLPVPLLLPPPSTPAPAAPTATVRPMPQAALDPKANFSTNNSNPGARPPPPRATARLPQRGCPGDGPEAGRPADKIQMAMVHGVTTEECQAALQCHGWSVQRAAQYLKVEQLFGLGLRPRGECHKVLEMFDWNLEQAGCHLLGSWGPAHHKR

[6] = target: T3, Eukaryotic elongation factor 2 kinase (Homo sapiens) (UniProt O00418); test: Inhibition of eEF2K ATP labeling site harbouring YIKYNSNSGFVR in human A-375 cells at 5 uM by KiNativ Profiling analysis relative to control; format: cell-based
T3 sequence (whole entry): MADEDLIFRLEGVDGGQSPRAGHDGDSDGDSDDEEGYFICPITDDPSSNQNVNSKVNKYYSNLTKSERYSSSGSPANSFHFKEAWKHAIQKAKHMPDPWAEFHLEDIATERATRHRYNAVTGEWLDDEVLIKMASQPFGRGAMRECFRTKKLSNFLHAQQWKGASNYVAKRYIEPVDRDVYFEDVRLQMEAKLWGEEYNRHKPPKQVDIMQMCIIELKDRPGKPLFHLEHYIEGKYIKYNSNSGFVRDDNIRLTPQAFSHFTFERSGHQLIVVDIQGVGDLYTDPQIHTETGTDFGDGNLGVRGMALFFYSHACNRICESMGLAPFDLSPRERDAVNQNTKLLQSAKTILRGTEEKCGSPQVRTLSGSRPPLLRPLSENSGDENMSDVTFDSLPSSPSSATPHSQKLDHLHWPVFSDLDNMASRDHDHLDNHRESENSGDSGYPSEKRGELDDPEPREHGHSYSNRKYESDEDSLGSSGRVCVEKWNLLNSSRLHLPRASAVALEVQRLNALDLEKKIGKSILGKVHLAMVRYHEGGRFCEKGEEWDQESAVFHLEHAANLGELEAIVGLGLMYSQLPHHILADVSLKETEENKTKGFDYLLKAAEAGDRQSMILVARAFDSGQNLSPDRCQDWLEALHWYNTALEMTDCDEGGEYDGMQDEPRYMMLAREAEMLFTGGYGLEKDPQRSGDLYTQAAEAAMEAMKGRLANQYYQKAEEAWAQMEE

[7] = target: Cyclin-dependent kinase 5 (Homo sapiens) (UniProt Q00535); test: Inhibition of CDK5 K2 labeling site harbouring DLKPQNLLINR in human Huh-7 cells at 1 uM by KiNativ Profiling analysis relative to control; format: cell-based
Sequence of Cyclin-dependent kinase 5 (Homo sapiens) (Q00535 whole entry, looked up): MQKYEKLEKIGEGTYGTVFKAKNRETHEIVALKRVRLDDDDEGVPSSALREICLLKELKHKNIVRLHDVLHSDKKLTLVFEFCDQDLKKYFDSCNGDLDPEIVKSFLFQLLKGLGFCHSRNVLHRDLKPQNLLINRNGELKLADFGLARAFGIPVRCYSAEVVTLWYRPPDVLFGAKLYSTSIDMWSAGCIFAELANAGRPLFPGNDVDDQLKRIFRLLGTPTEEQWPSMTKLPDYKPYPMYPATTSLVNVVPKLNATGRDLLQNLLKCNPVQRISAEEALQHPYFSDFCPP

[8] = target: Serine/threonine-protein kinase 26 (Homo sapiens) (UniProt Q9P289); test: Inhibition of MST4 ATP labeling site in human Huh-7 cells at 1 uM by KiNativ Profiling analysis relative to control; format: cell-based
[9] = target: Ephrin type-A receptor 6 (Homo sapiens) (UniProt Q9UF33); test: Inhibition of EPHA6 (unknown origin) at 10 uM by Ambit Kinomescan binding assay
Sequence of Ephrin type-A receptor 6 (Homo sapiens) (Q9UF33 whole entry): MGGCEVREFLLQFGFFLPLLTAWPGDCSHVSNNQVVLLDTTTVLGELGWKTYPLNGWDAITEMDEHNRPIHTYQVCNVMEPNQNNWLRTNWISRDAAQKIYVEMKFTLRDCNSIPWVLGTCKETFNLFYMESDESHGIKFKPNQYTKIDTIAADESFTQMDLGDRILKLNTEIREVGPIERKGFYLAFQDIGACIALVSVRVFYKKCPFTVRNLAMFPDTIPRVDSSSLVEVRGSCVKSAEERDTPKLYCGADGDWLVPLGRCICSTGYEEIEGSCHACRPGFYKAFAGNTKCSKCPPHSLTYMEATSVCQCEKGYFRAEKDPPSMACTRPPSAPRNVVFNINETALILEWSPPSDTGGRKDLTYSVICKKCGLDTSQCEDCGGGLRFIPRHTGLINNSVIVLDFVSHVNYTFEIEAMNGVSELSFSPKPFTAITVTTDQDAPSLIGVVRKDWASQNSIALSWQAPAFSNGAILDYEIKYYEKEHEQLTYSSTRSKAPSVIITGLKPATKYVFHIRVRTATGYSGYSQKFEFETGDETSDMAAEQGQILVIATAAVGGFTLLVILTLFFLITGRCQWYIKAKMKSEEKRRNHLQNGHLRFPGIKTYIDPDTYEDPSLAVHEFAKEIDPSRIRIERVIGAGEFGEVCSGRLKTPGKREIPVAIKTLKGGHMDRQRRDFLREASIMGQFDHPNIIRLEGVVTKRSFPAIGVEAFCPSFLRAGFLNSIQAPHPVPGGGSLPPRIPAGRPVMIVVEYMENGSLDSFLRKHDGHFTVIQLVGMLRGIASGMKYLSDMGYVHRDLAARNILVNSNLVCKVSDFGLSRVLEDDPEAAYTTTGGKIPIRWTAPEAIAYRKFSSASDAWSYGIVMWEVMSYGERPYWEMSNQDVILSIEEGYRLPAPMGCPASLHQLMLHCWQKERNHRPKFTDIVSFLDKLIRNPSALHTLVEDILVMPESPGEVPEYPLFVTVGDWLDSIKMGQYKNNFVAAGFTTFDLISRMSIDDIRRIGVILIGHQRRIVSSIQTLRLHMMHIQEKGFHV

[10] = target: Proto-oncogene tyrosine-protein kinase Src (Homo sapiens, UniProt P12931); test: Inhibition of SRC K1 labeling site in human Huh-7 cells at 10 uM by KiNativ Profiling analysis relative to control; format: cell-based
Sequence of Proto-oncogene tyrosine-protein kinase Src (P12931 2-536 limits assumed): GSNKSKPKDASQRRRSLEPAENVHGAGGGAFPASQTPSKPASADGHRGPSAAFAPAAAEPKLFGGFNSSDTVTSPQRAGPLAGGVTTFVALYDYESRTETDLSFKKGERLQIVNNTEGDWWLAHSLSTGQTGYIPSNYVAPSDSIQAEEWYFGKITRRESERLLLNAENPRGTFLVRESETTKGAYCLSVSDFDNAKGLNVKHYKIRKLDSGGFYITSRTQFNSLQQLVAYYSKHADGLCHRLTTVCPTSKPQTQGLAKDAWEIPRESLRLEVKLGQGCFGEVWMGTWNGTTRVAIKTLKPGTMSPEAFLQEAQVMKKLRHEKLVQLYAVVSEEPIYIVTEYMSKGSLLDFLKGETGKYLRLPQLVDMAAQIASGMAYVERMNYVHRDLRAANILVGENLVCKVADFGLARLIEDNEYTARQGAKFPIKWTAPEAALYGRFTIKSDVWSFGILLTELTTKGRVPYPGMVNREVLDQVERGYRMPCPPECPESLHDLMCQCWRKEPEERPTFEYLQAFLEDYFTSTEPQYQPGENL

[11] = system: Phosphatidylinositol 4,5-bisphosphate 3-kinase catalytic subunit alpha isoform (Homo sapiens), P42336 [E545K]; test: Inhibition of PIK3CA E545K mutant (unknown origin) at 10 uM by Ambit Kinomescan binding assay
Sequence of Phosphatidylinositol 4,5-bisphosphate 3-kinase catalytic subunit alpha isoform (Homo sapiens), P42336 [E545K] (P42336 whole entry E545K, canonical isoform): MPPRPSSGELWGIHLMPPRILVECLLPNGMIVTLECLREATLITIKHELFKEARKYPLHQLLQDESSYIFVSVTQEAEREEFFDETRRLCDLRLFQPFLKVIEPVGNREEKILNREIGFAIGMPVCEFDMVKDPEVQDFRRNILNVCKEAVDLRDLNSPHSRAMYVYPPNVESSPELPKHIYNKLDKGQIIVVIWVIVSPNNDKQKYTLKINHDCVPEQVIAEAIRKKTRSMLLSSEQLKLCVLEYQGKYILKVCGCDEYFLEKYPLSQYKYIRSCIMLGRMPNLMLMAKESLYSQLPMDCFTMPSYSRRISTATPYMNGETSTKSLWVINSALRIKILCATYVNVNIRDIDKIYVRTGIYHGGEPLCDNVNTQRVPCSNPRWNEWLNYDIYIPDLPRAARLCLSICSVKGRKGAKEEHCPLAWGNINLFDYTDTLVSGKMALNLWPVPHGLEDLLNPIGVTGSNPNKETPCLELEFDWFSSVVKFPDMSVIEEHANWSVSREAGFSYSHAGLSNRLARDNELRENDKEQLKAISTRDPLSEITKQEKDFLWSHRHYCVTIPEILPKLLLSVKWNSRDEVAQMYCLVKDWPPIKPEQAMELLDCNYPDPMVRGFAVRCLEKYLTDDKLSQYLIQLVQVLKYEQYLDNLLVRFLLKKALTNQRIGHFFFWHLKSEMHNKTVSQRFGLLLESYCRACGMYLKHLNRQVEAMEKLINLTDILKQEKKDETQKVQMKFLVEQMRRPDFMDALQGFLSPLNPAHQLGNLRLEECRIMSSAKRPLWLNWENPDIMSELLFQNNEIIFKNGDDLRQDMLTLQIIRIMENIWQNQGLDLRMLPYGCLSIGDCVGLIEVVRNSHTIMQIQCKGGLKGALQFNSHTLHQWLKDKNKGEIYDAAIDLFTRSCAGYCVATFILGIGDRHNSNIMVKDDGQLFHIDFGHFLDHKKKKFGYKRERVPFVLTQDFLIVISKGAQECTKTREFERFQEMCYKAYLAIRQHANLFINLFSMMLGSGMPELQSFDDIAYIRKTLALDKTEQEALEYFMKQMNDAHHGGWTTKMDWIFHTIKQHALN

[12] = target: Serine/threonine-protein kinase PAK 5 (Homo sapiens) (UniProt Q9P286); test: Inhibition of PAK7 (unknown origin) at 10 uM by Ambit Kinomescan binding assay

Sequence of Serine/threonine-protein kinase 4 (Homo sapiens) (Q13043 whole entry, looked up, the tested form may be a part): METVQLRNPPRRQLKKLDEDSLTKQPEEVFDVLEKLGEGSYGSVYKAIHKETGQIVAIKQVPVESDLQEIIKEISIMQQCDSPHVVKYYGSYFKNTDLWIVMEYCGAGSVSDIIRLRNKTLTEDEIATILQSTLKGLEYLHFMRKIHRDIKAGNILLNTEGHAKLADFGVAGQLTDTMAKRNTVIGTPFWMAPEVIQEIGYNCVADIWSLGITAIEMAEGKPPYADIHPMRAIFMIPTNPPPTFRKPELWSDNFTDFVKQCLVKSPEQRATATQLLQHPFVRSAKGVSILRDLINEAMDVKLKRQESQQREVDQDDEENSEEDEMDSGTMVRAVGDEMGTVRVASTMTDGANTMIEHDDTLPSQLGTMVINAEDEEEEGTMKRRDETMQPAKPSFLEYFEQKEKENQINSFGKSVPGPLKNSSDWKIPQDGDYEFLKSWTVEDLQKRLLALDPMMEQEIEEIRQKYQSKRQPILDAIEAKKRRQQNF

CNc1cc(Oc2cc(C(=O)Nc3cc(N4CCN(C)CC4)cc(C(F)(F)F)c3)ccc2C)ncn1
inhibition [1]: 14.4%
inhibition [2]: -0.1%

CCN1CCN(Cc2ccc(NC(=O)c3ccc(C)c(Oc4ccnc5[nH]ccc45)c3)cc2C(F)(F)F)CC1
inhibition [3]: -2.1%
inhibition [4]: inactive
inhibition [5]: 6.1%
inhibition [6]: -2.4%
inhibition [7]: -7.6%
inhibition [8]: 18%
inhibition [9]: inactive
inhibition [10]: 50.1%
inhibition [11]: inactive
inhibition [12]: inactive
